This is an account of results in US20250152719A1, “FUSED IMIDE DERIVATIVE” (Chia Tai Tianqing Pharmaceutical Group Co., Ltd., priority 2021, published 2025).

Data set [1] in a line: In vitro liver microsomal stability, mouse. The conditions noted are these: 0.5 mg/mL microsomes, NADPH, 37° C., 1 h.
Procedure: Liver microsome incubation samples were prepared by mixing a PBS buffer (pH 7.4), a liver microsome solution (0.5 mg/mL), a test compound, and an NADPH+MgCl2 solution and incubated at 37° C. and 300 rpm for 1 h. Zero-hour samples were prepared by mixing a PBS buffer (pH 7.4), a liver microsome solution (0.5 mg/mL), and a test compound. An acetonitrile solution containing an internal standard was added to the samples, and supernatants were prepared by protein precipitation, diluted, and then assayed by LC/MS/MS.
A further data set concerns the target BTK(C481S) kinase (Homo sapiens (Human), UniProt Q06187, C481S). Kind of data set: Inhibitory activity on BTK(C481S) kinase. Format: biochemical. Particulars: ATP 10 μM. The protocol: The Assay Buffer was prepared, and the composition of the Assay Buffer was 50 mM Hepes (Gibco, 15630), 10 mM MgCl2, 2 mM DTT, 1 mM EGTA, and 0.010% Tween 20. BTK(C481S) kinase (Carna Biosciences, 08-547), ATP (Sigma, A7699), and ULight-poly GT (PE, TRF0100-M) working solutions were prepared using the Assay Buffer. EDTA and Eu-labeled anti-phosphotyrosine (PT66) antibody (PE, AD0069) working solutions were prepared using the Detection Buffer. 6 μL of BTK(C481S) kinase at the corresponding concentration (final concentration: 0.005 ng/μL) was added to the compound groups and the control group, while 6 μL of the Assay Buffer was added to the blank group, and then the compounds (with the concentration set to 1000 nM at the maximum, 4-fold dilution, 7 concentration gradients) were added using a nanoliter pipettor. The mixture was incubated at room temperature for 30 min, and then 4 μL of the mixture of ATP (final concentration: 10 μM) and ULight-poly GT (final concentration: 100 nM) was added. After incubation at room temperature for 2 h, 5 μL of EDTA (final concentration: 10 mM) was added to stop the reaction, and finally 5 μL of antibody (final concentration: 2 nM) was added. After incubation at room temperature for 1 h, signal values were detected at 665/615 nM, the four-parameter analysis was performed, the dose-response curves were fit, and IC50 was calculated.

The target of a further data set is BTK(WT) kinase (Homo sapiens (Human), UniProt Q06187). In words: Inhibitory activity on BTK(WT) kinase. Format: biochemical. Particulars: ATP 10 μM. The protocol:
The Assay Buffer was prepared, and the composition of the Assay Buffer was 50 mM Hepes (Gibco, 15630), 10 mM MgCl2, 2 mM DTT, 1 mM EGTA, and 0.010% Tween 20. BTK(WT) kinase (Life, PR5442A), ATP (Sigma, A7699), and ULight-poly GT (PE, TRF0100-M) working solutions were prepared using the Assay Buffer. EDTA and Eu-labeled anti-phosphotyrosine (PT66) antibody (PE, AD0069) working solutions were prepared using the Detection Buffer (PE, CR97-100). 6 μL of BTK(WT) kinase at the corresponding concentration (final concentration: 0.003 ng/L) was added to the compound groups and the control group, while 6 μL of the Assay Buffer was added to the blank group, and then the compounds (with the concentration set to 1000 nM at the maximum, 4-fold dilution, 7 concentration gradients) were each added using a nanoliter pipettor. The mixture was incubated at room temperature for 30 min, and then 4 μL of the mixture of ATP (final concentration: 10 μM) and ULight-poly GT (final concentration: 100 nM) was added. After incubation at room temperature for 2 h, 5 μL of EDTA (final concentration: 10 mM) was added to stop the reaction, and finally 5 μL of antibody (final concentration: 2 nM) was added. After incubation at room temperature for 1 h, signal values were detected at 665/615 nM, the four-parameter analysis was performed, the dose-response curves were fit, and IC50 was calculated.

A further data set deals with BTK (Homo sapiens (Human), UniProt Q06187). Kind of data set: BTK degradation in OCI-LY10 cells (Total-BTK HTRF kit). The format is cell-based. The conditions noted are these: OCI-Ly10, OCI-LY10 cells, 24 (or 6) h incubation; maximum degradation rate. In outline: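 OCI-LY10 cells seeded overnight, then treated with compound at 100 nM-0.098 nM in duplicate for 24 (or 6) h. Lysates probed by Total-BTK HTRF (d2/Eu cryptate antibodies, overnight, room temperature), read at 665/620 nm; DC50 and Dmax from four-parameter dose-response fits.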
A general note: TR-FRET usually uses a lanthanide donor and a delayed reading to cut background.

Another data set deals with TMD8-BTK(C481S) cells. In words: Inhibitory activity on TMD8-BTK(C481S) cell proliferation (CCK-8). The format is cell-based. Particulars: 72 h, 72 h incubation. In outline: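 Cells seeded at 8×10^4 cells/mL, incubated overnight, then treated in duplicate with compounds at 5000 nM-0.31 nM for 72 h. Viability by CCK-8 (4 h, absorbance 450 nm); IC50 from four-parameter dose-response fits.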

Another data set concerns the target EGFR kinase (Homo sapiens (Human), UniProt P00533). Kind of data set: Inhibitory activity on EGFR kinase. The format is biochemical. Particulars: ATP 5 μM. The protocol: The Assay Buffer was prepared, and the composition of the Assay Buffer was 50 mM Hepes (Gibco, 15630), 10 mM MgCl2, 2 mM DTT, 1 mM EGTA, and 0.010% Tween 20. EGFR kinase (Carna, 08-115), ATP (Sigma, A7699), and ULight-poly GT (PE, TRF0100-M) working solutions were prepared using the Assay Buffer. EDTA and Eu-labeled anti-phosphotyrosine (PT66) antibody (PE, AD0069) working solutions were prepared using the Detection Buffer. 6 μL of EGFR kinase at the corresponding concentration (final concentration: 0.006 ng/μL) was added to the compound groups and the control group, while 6 μL of the Assay Buffer was added to the blank group, and then the compounds (with the concentration set to 1000 nM at the maximum, 4-fold dilution, 7 concentration gradients) were added using a nanoliter pipettor. The mixture was incubated at room temperature for 30 min, and then 4 μL of the mixture of ATP (final concentration: 5 μM) and ULight-poly GT (final concentration: 100 nM) was added. After incubation at room temperature for 2 h, 5 μL of EDTA (final concentration: 10 mM) was added to stop the reaction, and finally 5 μL of antibody (final concentration: 2 nM) was added. After incubation at room temperature for 1 h, signal values were detected at 665/615 nM, the four-parameter analysis was performed, the dose-response curves were fit, and IC50 was calculated.

SMILES strings stand for the structures.

Chain of BTK (Q06187 whole entry): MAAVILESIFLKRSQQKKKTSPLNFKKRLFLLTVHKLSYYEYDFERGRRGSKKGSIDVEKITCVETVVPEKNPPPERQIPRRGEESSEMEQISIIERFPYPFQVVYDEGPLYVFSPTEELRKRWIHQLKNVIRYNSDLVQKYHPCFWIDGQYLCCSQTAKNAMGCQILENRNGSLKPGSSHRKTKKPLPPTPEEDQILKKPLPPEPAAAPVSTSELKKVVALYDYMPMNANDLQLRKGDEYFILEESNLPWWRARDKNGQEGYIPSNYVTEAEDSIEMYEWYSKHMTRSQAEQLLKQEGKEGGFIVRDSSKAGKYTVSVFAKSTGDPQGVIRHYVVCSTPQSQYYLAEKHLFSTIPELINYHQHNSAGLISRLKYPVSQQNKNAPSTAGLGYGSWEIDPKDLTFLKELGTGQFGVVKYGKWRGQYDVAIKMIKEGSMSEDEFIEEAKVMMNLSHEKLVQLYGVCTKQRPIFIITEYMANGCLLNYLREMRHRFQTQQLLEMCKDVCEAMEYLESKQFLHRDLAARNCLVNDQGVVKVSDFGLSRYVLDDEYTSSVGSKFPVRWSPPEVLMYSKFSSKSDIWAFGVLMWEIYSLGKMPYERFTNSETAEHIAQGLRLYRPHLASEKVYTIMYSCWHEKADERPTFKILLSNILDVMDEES
Chain of BTK(WT) kinase (Q06187 whole entry): as above
Chain of EGFR kinase (P00533 669-1210): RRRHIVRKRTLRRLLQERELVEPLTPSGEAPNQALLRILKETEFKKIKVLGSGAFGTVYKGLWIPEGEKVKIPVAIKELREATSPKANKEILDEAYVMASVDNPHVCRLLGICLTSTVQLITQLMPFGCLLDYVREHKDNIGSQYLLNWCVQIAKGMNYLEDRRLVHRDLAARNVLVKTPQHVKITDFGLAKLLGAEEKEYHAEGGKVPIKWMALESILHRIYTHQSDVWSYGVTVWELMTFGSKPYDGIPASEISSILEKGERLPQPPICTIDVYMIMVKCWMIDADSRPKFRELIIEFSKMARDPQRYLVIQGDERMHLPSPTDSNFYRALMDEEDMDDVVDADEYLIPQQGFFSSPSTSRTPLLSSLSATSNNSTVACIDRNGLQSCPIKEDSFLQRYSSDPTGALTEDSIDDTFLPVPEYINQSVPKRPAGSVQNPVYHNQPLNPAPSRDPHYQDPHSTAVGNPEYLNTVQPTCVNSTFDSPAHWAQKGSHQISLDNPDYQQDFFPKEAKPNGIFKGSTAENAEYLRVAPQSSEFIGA
Chain of BTK(C481S) kinase (Q06187 whole entry C481S): as the sequence (Q06187 whole entry) above, with C481S counted along it

For the compound `CN1CCN([C@@H]2CCCN(c3cnc(C(N)=O)c(Nc4ccc(C5CCC6(CC5)CCN(CC5Cc7ccc8c(C9CCC(=O)NC9=O)noc8c7C5)CC6)cc4)n3)C2)C1=O` (stereo partly drawn) [Compound 50], the “Mouse liver microsome Residuals at 60 min” value in data set [1] worked out at 63.1%. Besides, the IC50 against BTK(C481S) kinase worked out at 0.81 nM; on BTK(WT) kinase, 0.42 nM; in the data set with TMD8-BTK(C481S) cells it was 4 nM; against EGFR kinase it was 69 nM. In addition, the Dmax at BTK is over 90%.
Take `CN1CCN([C@@H]2CCCN(c3cnc(C(N)=O)c(Nc4ccc(C5CCC6(CC5)CC(N5CCc7ccc8c(C9CCC(=O)NC9=O)noc8c7CC5)C6)cc4)n3)C2)C1=O` (stereo partly drawn) [Compound 59]: in data set [1], the “Mouse liver microsome Residuals at 60 min” value worked out at 47.0%. Besides, the IC50 against BTK(C481S) kinase was 9.1 nM; at BTK(WT) kinase, 5.4 nM; in the data set on TMD8-BTK(C481S) cells, 12 nM; against EGFR kinase it was 279 nM. For the same compound, at BTK, the Dmax was over 90%.

One may read the IC50 as the midpoint of a concentration-inhibition curve. A higher IC50 goes with weaker potency in that assay. The Dmax is the largest share of the target that was removed. Lower therefore signals shallow degradation.
